Measurements taken from patent publication US12558345B2, “CHK1/2 inhibitors for use in the treatment of neuroblastomas and/or soft tissue sarcomas” (Eli Lilly and Company, priority 2015, dated 2026).
Counter-ions that a name gives are not always drawn.

What was measured:
[1] = system: CTG-1213 RMS patient-derived xenograft; assay: Xenograft Tumor Model CTG-1213; assay type: in vivo, mouse
Procedure: (§1) The efficacy of 5-(5-(2-(3-aminopropoxy)-6-methoxyphenyl)-1H-pyrazol-3-ylamino)pyrazine-2-carbonitrile methanesulfonic acid monohydrate is measurable in vivo in mouse models of neuroblastomas and human pediatric and adult sarcomas. 5-(5-(2-(3-Aminopropoxy)-6-methoxyphenyl)-1H-pyrazol-3-ylamino)pyrazine-2-carbonitrile methanesulfonic acid monohydrate (10 mg/kg) can be administered subcutaneously to nude mice bearing either cell-derived xenografts (CDX) or patient-derived xenografts (PDX) of human rhabdomyosarcoma, desmoplastic small round cell tumor (DSRCT), osteosarcoma, and Ewing's sarcoma using a 3 day on, 4 day off b.i.d. dosing schedule. Tumor volume and body weight can be measured two times per week. Tumor-specific parameters can be evaluated by immumohistochemistry. […]
(§2) For all “ST” models (encompassing RMS and LMS), patient-derived xenografts are established from viable human tumor tissue and are serially passaged in animals a limited number of times to maintain tumor heterogeneity. […] Tumor response is determined by tumor volume measurement performed twice per week during the course of treatment.

[2] = system: CTG-0242 OS patient-derived xenograft; assay: Xenograft Tumor Model CTG-0242; assay type: in vivo, mouse; details: comparator day 28, p-value 0.012
Procedure: as §1, §2

[3] = system: SH-SY5Y human NBM cancer cell xenograft; assay: Xenograft Tumor Model SH-SY5Y; assay type: in vivo, mouse; details: comparator day 28, 8 mg/kg dose, p-value <0.001
Procedure: The following protocol can be used to measure reductions in tumor volume in response to an active pharmaceutical ingredient. Expand human NBM cancer cells SH-SY5Y (ATCC, #CRL-2226) in culture, harvest, and inject 5×10^6 cells in 200 μL of 1:1 solution of HBSS and Matrigel® subcutaneously into the right rear flank of female CD-1 nu/nu mice (20-24 g, Charles River Laboratories). Expand human NBM cancer cells KELLY (Sigma-#92110411) in culture, harvest, and inject 5×10^6 cells in 200 μL of 1:1 solution of HBSS and Matrigel® subcutaneously into the right rear flank of female CB-17 SCID mice (20-24 g, Charles River Laboratories). Expand human NBM cancer cells IMR-32 (ATCC, #CCL-127) in culture, harvest, and inject 5×10^6 cells in 200 μL of 1:1 solution of HBSS and Matrigel® subcutaneously into the right rear flank of female CB-17 SCID mice (20-24 g, Charles River Laboratories).
as §2

[4] = system: CTG-0785 EWS patient-derived xenograft; assay: Xenograft Tumor Model CTG-0785; assay type: in vivo, mouse; details: comparator day 18, p-value 0.052
Procedure: as §1, §2

HT-29 cells = assay: ECtfs (Two-Fold Sensitization) Assay; assay type: cell-based
Procedure: An inhibitor of CHK1 can potentiate the anti-proliferative activity of gemcitabine (or other cytotoxics) through abrogation of the intra-S phase checkpoint, resulting in sustained and increased DNA damage. The capacity for continued tumor cell proliferation after DNA damage can be analyzed by determining the ability of cells to replicate their DNA. […] In this assay, cells are treated with gemcitabine, and then with the compound of Example 2. Following a recovery period, cells are assayed for the ability to incorporate radioactive thymidine into DNA during S phase. The ECtfs parameter is a measure of the concentration of a CHK1 inhibitor necessary to reduce by half the GI90 concentration of gemcitabine, measured in this assay in the absence of CHK1 inhibition. HT-29 cells (obtained from ATCC), are grown in RPMI 1640 plus (Gibco™) 10% (v/v) heat inactivated FBS. These cells are plated at 1.3×10^3 per well on Corning Costar 96-well tissue culture plates. After plating the cells, the tissue culture plates are held at room temperature for 45 minutes, before returning to 37° C. Plates are incubated for 24 hours prior to gemcitabine addition. Before gemcitabine addition, medium is removed from all wells and replaced with 150 μL per well of fresh RPMI medium. Gemcitabine stocks at 10 mM are prepared in PBS. Gemcitabine dilutions were prepared at 4× concentrations in RPMI medium and added to wells at 50 μL per well. The highest final concentration of gemcitabine used is 80 μM and dilutions proceed by four-fold steps. Two hours later, gemcitabine-containing medium is removed from the wells and replaced with 150 μL per well of fresh RPMI medium. […] The volume of addition is 50 μL. Compound dilutions proceed by two-fold steps, starting at 5000 nM. […] Twenty μL of this solution is added to each well, yielding 1 µCi/well of ^3H-thymidine. Cells are labeled for twenty-two hours. The medium containing ^3H-thymidine is thoroughly removed from the wells. The plates are then frozen at −20° C., for several hours. To harvest the DNA containing incorporated ^3H-thymidine, plates are thawed for several minutes, and then 120 μL per well of 0.1 N NaOH is added to each well. Each plate is then incubated at 37° C., with slow mixing on a rotator, for 10 minutes. DNA is harvested with a Filtermate 196 Harvester (PerkinElmer) and collected on 96-well Unifilter GF/C plates (PerkinElmer #6005174). The wells of the tissue culture plate on which cells had been labeled are washed with water (5×). The Unifilter plate membranes are washed with an additional 4.5 mL per well (3×1.0 mL and finally a 1.5 mL wash). The Unifi is sealed with a Backseal adhesive sheet (PerkinElmer), and the 50 μL/well of MicroScint-20 (Perkin Elmer) is added. Each plate is then sealed with a Topseal clear adhesive sheet (PerkinElmer). Plates are counted on a Topcount scintillation counter (PerkinElmer), at 1 minute per well. ^3H-thymidine counts per minute (cpm) are exported into Prism (GraphPad) for analysis and plotting. […] For plotting the data in Prism, the gemcitabine concentrations are transformed to log values, and dose-response curves are fit by non-linear regression. Neither top nor bottom fits are constrained. The ECtfs value is 0.3 nM.

Compound | % T/C ([1]; comparator day 18, p-value 0.004) | % Regression ([1]; comparator day 36, p-value <0.001) | % T/C [2] | % Regression [3] | % T/C [4] | decrease of the EC50 of gemcitabine (HT-29 cells; HT29 cells, 3 nM of the compound of Example 2) | ECtfs value (HT-29 cells; HT-29 cells, concentration necessary to reduce by half the GI90 concentration of gemcitabine, 3H-thymidine incorporation) | effect on the proliferation of HT29 cells (HT-29 cells; compound alone, 3 nM)
COc1cccc(OCCCN)c1-c1cc(Nc2cnc(C#N)cn2)n[nH]1 [Example 5, 5-(5-(2-(3-Aminopropoxy)-6-methoxyphenyl)-1H-pyrazol-3-ylamino)pyrazine-2-carbonitrile methanesulfonic acid monohydrate] | 18% | −65% | 6% | −21% | 57% | – | – | –
COc1cccc(OCCCN)c1-c1cc(Nc2cnc(C#N)cn2)n[nH]1 [Example 2, 5-(5-(2-(3-Aminopropoxy)-6-methoxyphenyl)-1H-pyrazol-3-ylamino)pyrazine-2-carbonitrile dihydrogen chloride salt] | – | – | – | – | – | 7 fold | 0.3 nM | little effect
